Reference: paper PMC10485906, “Development of a Dihydroquinoline–Pyrazoline GluN2C/2D-Selective Negative Allosteric Modulator of the N-Methyl-D-aspartate Receptor” (ACS Chemical Neuroscience, 2023)
Entries after “also recorded” stand apart in the source; their conditions may differ.

System: AMPA, kainate, GluN1/GluN3, GABA, glycine, nicotinic, purinergic P2X receptors
Test: Off-target actions, summary in words
Assay type: cell-based
Conditions: 1 μM
Procedure: By contrast, the other enantiomer (R)-(+)-2i had lower potency and produced shallow, incomplete inhibition (Figure S11).
Analysis of Off-target Actions
Compound (S)-(-)-2i was tested at 1 µM for actions at glycine-activated GluN1/GluN3A (human GluN1-F484A,T518L/GluN3A referred to a GluN1-FA,TL/GluN3A) and rat GluN1-4a/GluN3B in the presence of 0.5 µM CGP-78608. cRNA injection ratios for GluN1/GluN3 were 1:2. Compound (S)-(-)- 2i was also tested for actions at AMPA (rat GluA1, rat GluA2, human GluA3-L531Y), kainate (rat GluK2), nicotinic acetylcholine (rat α7 and α4β2, cRNA ratio 1:1), GABAA (rat α1β2γ2S, cRNA ratio 1:1:1), GABAC (rat ρ1), glycine (rat α1), and purinergic (human P2X) receptors expressed in Xenopus oocytes. cRNA encoding the receptor subunits was synthesized from linear template cDNA using the mMessage mMachine kit (Ambion). Oocytes were injected with 1-5 ng cRNA in a 50 nL volume and incubated in Barth's solution at 15°C for 2-5 days prior to recording. GluK2-expressing oocyte were incubated in 1 mg/ml (10 µM) concanavalin-A for 10 min prior to recording. The cDNAs encoding GABAC and glycine subunits were provided by Dr. D. Weiss (University of Texas Health Science Center at San Antonio). cDNAs encoding nicotinic acetylcholine receptor subunits were provided by Drs. […]
GABA. […] Responses in presence of test compound were expressed as a percent of control. […]

- off-target actions: no effects; also recorded: no activity
SMILES: O=C(O)CC(F)(F)C(=O)N1N=C(c2c(-c3ccc(Cl)cc3)c3ccccc3[nH]c2=O)C[C@H]1c1ccc(Cl)cc1 [(S)-(−)-2i]
